Here are results for 2 compounds from patent US20080050444A1, “Pharmaceutical compositions of ilaparazole” (priority 2005, published 2008).

Data set [1] is described as follows: Particle size distribution of ilaprazole lots (Sympatec HELOS, low-angle laser light scattering). The format is physicochemical. To be noted: nitrogen pressure 2 bar. The procedure: The two lots of ilaprazole active ingredient were analyzed using a Sympatec HELOS particle size system with a RODOS dry powder disperser. This instrument operates using low-angle laser light scattering analyzed by Fraunhofer diffraction theory. Aliquots of approximately 0.5 g were fed into the instrument from a vibrating tray into a jet of nitrogen gas. After flowing through an interaction tube, an aerosol was formed in the path of a laser beam. The angle and intensity of diffracted light was then measured to determine the particle size distribution. As part of the method development, the particle size distribution was measured as a function of nitrogen gas pressure, and a pressure of 2 bar was determined to adequately break apart loosely adhered particles without significant milling of the sample. The results are shown below in Table 1 and in FIG. 1. The particle sizes are listed as x10, x50 and x90, the diameter where 10%, 50% and 90% of the volume of the material is in a particle smaller than the listed size.

For data set [2] the following is noted: acid or neutral conditions; known in the art; cited from earlier work.

Structures are written as SMILES.

In the case of `COc1ccnc(C[S+]([O-])c2nc3cc(-n4cccc4)ccc3[nH]2)c1C` (stereo not shown) [Lot A, ilaprazole], in data set [1] (diameter where 10% of the volume of the material is in a particle smaller than the listed size), the “x10 Mean” value was 1.01 μm. In addition, the “x50 Mean” value in data set [1] (diameter where 50% of the volume of the material is in a particle smaller than the listed size) is reported as 3.74 μm. Besides, the “x90 Mean” value in data set [1] (diameter where 90% of the volume of the material is in a particle smaller than the listed size) is 14.79 μm.
For the compound `COc1ccnc(C[S+]([O-])c2nc3cc(-n4cccc4)ccc3[nH]2)c1C` (stereo not shown) [ilaprazole, 2-[[(4-methoxy-3-methyl)-2-pyridyl]methylsufinyl]-5-(1H-pyrrol-1-yl)benzimidazole], in data set [2], the stability entry is “unstable under acid or neutral conditions”.
